These are literature values, as cited in patent US20120059013A1, “METHOD OF TREATING EARLY MORNING AKINESIA IN SUBJECTS HAVING PARKINSON'S DISEASE” (priority 2010, published 2012).

The structures appear in SMILES notation.

The conditions of data set [1]: humans.
For data set [2], the system named is hepatic cytochrome P450 enzymes. The note with it: humans.

As to `CCCN[C@H]1CCc2nc(N)sc2C1` [Pramipexole, (S)-2-amino-4,5,6,7,-tetrahydro-6-(propylamino)benzothiazole], in data set [1], the Half-life result is recorded as “long half-life” and the Oral bioavailability result is given as “high oral bioavailablity”. For the same compound, the “Interaction with hepatic cytochrome P450 enzymes” value in data set [2] is given as “no significant interaction with hepatic cytochrome P450 enzymes”.
